Results reported in US20210283253A1, “COMPOSITIONS AND METHODS AGAINST P. AERUGINOSA INFECTIONS” (priority 2017, published 2021).
“Also recorded” adds a separate entry of the source.

Assays:
Pseudomonas aeruginosa [1] = assay: OPA with mAb/antibiotic combinations; assay type: cell-based; conditions: 90 minutes
Procedure: The assay is performed in 96-well microtiter plates with 1% BSA in MEM as the assay diluent. The Leukemia-derived human cell-line HL-60 is used as source of neutrophils. Differentiation of HL-60 cells into neutrophils is induced by addition of 100 mM Dimethylformamide (DMF). Neutrophil morphology is verified by expression of CD11b/Mac-1 marker using FACS. Neutrophils are washed, re-suspended in assay diluent, counted and diluted to a density of 2.5×10^7 cells/ml. Opsonization is mediated by Rabbit sera complement, diluted in assay diluent for a final dilution factor of 1:60. Freshly grown log-phase Pseudomonas strains are re-suspended and diluted in assay diluent to achieve a final ratio of neutrophils to bacteria of 20:1 to 40:1. Dilutions of Aerucin™ from 5 μg/ml to 100 ng/ml are prepared in assay diluent along with a commercial human IgG1 at 5 μg/ml as negative control. Other negative controls include assay mixtures with certain components (complements, neutrophils, antibodies) absent.
Equal volumes (50 μl) of each component are added to assay wells in the order of: antibodies, complement, neutrophils then bacteria. The components are mixed using a multichannel pipette. Samples at time zero are taken, diluted and plated on agar plates for titer determination. Assay plates are then incubated at 37° C. with shaking for 90 minutes. Samples are again taken, diluted and plated on agar plates.
(§1) Bacteria titers (CFU/ml) are determined for time-zero and 90-minute samples from colony counts on agar plates after overnight incubation at 37° C. Percent kills are calculated as the difference in titer at 90 minutes from time-zero, divided by the titer at time-zero: […].
The assay is performed as described above except that equal volumes (50 μl) of each component are added to assay wells in the order of: antibodies, antibiotic, complement, neutrophils, and then bacteria. Bacteria titers (CFU/ml) are measured directly after mixing all components and after 90 minutes incubation. The read-out of the assay (% kill) is how well the drug or combination of drugs can kill bacteria over these 90 minutes.
Averages from three independent experiments are presented.
Minimum inhibitory concentrations (MICs) of the antibiotics used in the OPA assays had been determined upfront (data not shown). […] Data for bactericidal antibiotics Cefepime and Piperacillin was generated with 1×MIC, for Aztreonam (bactericidal) with ½ MIC.

P. aeruginosa = conditions: cited from earlier work
Pseudomonas aeruginosa [2] = assay: Opsonic phagocytosis assay (OPA) with Aerucin; assay type: cell-based
Source text: FIG. 3. […] The opsonic phagocytosis assay (OPA) measures potency of antibodies based on the ability to initiate and mediate destruction of their specific targets by neutrophils. The assay utilizes purified complement from goat, rabbit, guinea pig or human sera, and neutrophils either isolated from whole blood or from differentiation of parental cell lines. Various concentrations of the antibody of interest, along with controls, are mixed with antigens. Complement serum and neutrophils are then added at certain ratios. After incubation to allow phagocytosis to occur, fractions of remaining antigens are then quantified by plating (bacteria) on agar plates to enumerate bacterial colonies remaining from the titer that was used at the start of the assay reaction. […]
The assay is performed in 96-well microtiter plates with 1% BSA in MEM as the assay diluent. […] Neutrophils are washed, re-suspended in assay diluent, counted and diluted to a density of 2.5×10^7 cells/ml. […]
as §1

[3] = 4 μg/ml antibiotic alone (Cefepime 1× MIC, Aztreonam ½ MIC)

## C[C@H]1[C@H](NC(=O)/C(=N\OC(C)(C)C(=O)O)c2csc(N)n2)C(=O)N1S(=O)(=O)O [Aztreonam]
Pseudomonas aeruginosa [1]; [3]
  % Kill: 60%

## CO/N=C(\C(=O)N[C@@H]1C(=O)N2C(C(=O)[O-])=C(C[N+]3(C)CCCC3)CS[C@H]12)c1csc(N)n1 [Cefepime]
Pseudomonas aeruginosa [1]; [3]
  % Kill: 40%

## O=C(O)c1cn(C2CC2)c2cc(N3CCNCC3)c(F)cc2c1=O [Ciprofloxacin]
Pseudomonas aeruginosa [1]; 0.5 μg/ml Ciprofloxacin alone (2× MIC)
  % Kill: does not show bacterial killing

## CCN1CCN(C(=O)N[C@@H](C(=O)N[C@@H]2C(=O)N3[C@@H]2SC(C)(C)[C@@H]3C(=O)O)c2ccccc2)C(=O)C1=O [Piperacillin]
Pseudomonas aeruginosa [1]; 8 μg/ml Piperacillin alone (1× MIC)
  % Kill: ~40%

## Colistin
Pseudomonas aeruginosa [1]; 2 μg/ml Colistin alone (2× MIC)
  % Kill: ~20%

## Panobacumab: anti-P. aeruginosa serotype 011 lipopolysaccharide monoclonal antibody
P. aeruginosa; meropenem resistant strain
  activity on a meropenem resistant P. aeruginosa strain: retained activity
P. aeruginosa; neutropenic host
  bacterial clearance from the lung: enhanced bacterial clearance
  lung inflammation: significantly reduced lung inflammation

B1: Aerucin: anti-Pseudomonas aeruginosa MEP binding human monoclonal antibody; heavy chain variable SEQ ID NO: 5, light chain variable SEQ ID NO: 7 (antibody, listed as Homo sapiens, V domains shown)
VH: QLQLQESGPGLVKPTETLSLTCTVSGGPITYINYYWGWVRQPPGKGLEWIGSIHYDGSTFYNPSLKSRVTISGDTSKSEFSVKLSSVTAADTAVYYCARTYYDASGSPYFDHWGQGTLVTVSS
VL: QSVLTQPPSVSAAPGQKVSISCSGSSSNIGNNYVSWYQQLPGTAPNLLIYDNNKRPSGIPDRFSGSKSGTSATLDITGLQSGDEADYYCGTWDSSLSTWVFGGGTKLTVL
Pseudomonas aeruginosa [1]; 50 ng/ml Aerucin alone
  % Kill: around 5%
Pseudomonas aeruginosa [2]; Aerucin 5 μg/ml to 100 ng/ml, rabbit complement, HL-60 neutrophils, 90 minutes
  opsonic phagocytosis: killing over negative controls: significant increase in killing over negative controls in a dose-dependent manner
Pseudomonas aeruginosa [2]; OPA without complement, a number of Pa strains (Pa 2410, Pa 27853, Pa PGO2338)
  killing of P. aeruginosa in the absence of complement: killing of P. aeruginosa bacteria in the absence of complement; also recorded: killing was observed in the absence of complement
